Results from US8034940B2, “Modulators of glucocorticoid receptor, AP-1, and/or NF-κB activity and use thereof” (Bristol-Myers Squibb Company, priority 2006, dated 2011).

Test system: AP-1 induced transcriptional activity
Assay: Cellular Transrepressional Assay (AP-1 luciferase reporter, PMA-activated A549 cells)
Type: cell-based
Settings: for Emax: A549, 7 h, read-out: AP-1 Max % inh (Cellular Transrepression Assay); for Emax / AP-1 Max % inh (Cellular Transrepression Assay): maximum inhibition
Summary of the method: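 A549 cells stably carrying a 7× AP-1–luciferase reporter were stimulated with 10 ng/ml PMA with or without compound (0.1 nM–40 μM) for 7 h. Luminescence read 10 min after luciferase reagent; EC50 fitted from % decrease versus PMA-only signal.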

[1] = Homo sapiens, Cellular Transrepression Assay
[2] = Homo sapiens, A549, Cellular Transrepression Assay

SMILES	Emax [1]	EC50 [2]	EC50 (Cellular Transrepression Assay)	AP-1 Max % inh (Cellular Transrepression Assay) (Cellular Transrepression Assay)
CC(C)(C(=O)Nc1nncs1)[C@H]1c2ccccc2Oc2nc(-c3ccc(C(=O)N4CCCCC4)cc3)ccc21 [Example 247]	52.4%	4.74 nM		
CC(C)(C(=O)Nc1nncs1)[C@H]1c2ccccc2Oc2nc(-c3ccc(C(=O)N4CCCCC4)c(F)c3)ccc21 [Example 249]			11.2 nM	42.38%
CN(C)C(=O)c1ccc(-c2ccc3c(n2)Oc2ccccc2[C@@H]3C(C)(C)C(=O)Nc2nncs2)cc1F [Example 250]	48.4%	17.8 nM		
CCN(C)C(=O)c1ccc(-c2ccc3c(n2)Oc2ccccc2C3C(C)(C)C(=O)Nc2nncs2)cc1 (centres unmarked) [Example 251]			17.4 nM	54.92%
CC(C)(C(=O)Nc1nncs1)[C@H]1c2ccccc2Oc2nc(-c3ccc(C(=O)N4CCCC4)cc3)ccc21 [Example 252]			34.6 nM	60.94%
CCCN(C)C(=O)c1ccc(-c2ccc3c(n2)Oc2ccccc2C3C(C)(C)C(=O)Nc2nncs2)cc1 (centres unmarked) [Example 254]			23.6 nM	41.80%
CC(C)(C(=O)Nc1nncs1)[C@H]1c2ccccc2Oc2nc(-c3ccc(C(=O)N4CCOCC4)cc3)ccc21 [Example 257]			12.4 nM	63.96%
CC(C)N(C)C(=O)c1ccc(-c2ccc3c(n2)Oc2ccccc2C3C(C)(C)C(=O)Nc2nncs2)cc1 (centres unmarked) [Example 258]			534 nM	40.99%
CCN(CC)C(=O)c1ccc(-c2ccc3c(n2)Oc2ccccc2[C@@H]3C(C)(C)C(=O)Nc2nncs2)cc1F [Example 259]	23.3%	72.2 nM		
CN(C)C(=O)c1ccc(-c2ccc3c(n2)Oc2ccccc2[C@@H]3C(C)(C)C(=O)Nc2nncs2)cc1Cl [Example 260]	67.3%	23.1 nM		
CCN(CC)C(=O)c1ccc(-c2ccc3c(n2)Oc2ccccc2[C@@H]3C(C)(C)C(=O)Nc2nncs2)cc1Cl [Example 263]	58%	15.4 nM		
CC(C)(C(=O)Nc1nncs1)[C@H]1c2ccccc2Oc2nc(-c3ccc(C(=O)N4CCCCC4)c(Cl)c3)ccc21 [Example 264]			115 nM	33.74%
CN(CCC#N)C(=O)c1ccc(-c2ccc3c(n2)Oc2ccccc2[C@@H]3C(C)(C)C(=O)Nc2nncs2)cc1 [Example 267]			569 nM	40.78%
CC(=O)N1CCN(C(=O)c2ccc(-c3ccc4c(n3)Oc3ccccc3[C@@H]4C(C)(C)C(=O)Nc3nncs3)cc2)CC1 [Example 274]	62.2%	234 nM		
CC(C)(C(=O)Nc1nncs1)[C@H]1c2ccccc2Oc2nc(-c3ccc(C(=O)N4CCC(F)(F)CC4)cc3)ccc21 [Example 300]	61.8%	14.8 nM		
COC1CCN(C(=O)c2ccc(-c3ccc4c(n3)Oc3ccccc3[C@@H]4C(C)(C)C(=O)Nc3nncs3)cc2)CC1 [Example 309]			41.5 nM	34.95%
CC(C)(C(=O)Nc1nncs1)[C@H]1c2ccccc2Oc2nc(-c3ccc(C(=O)N4CCS(=O)(=O)CC4)cc3)ccc21 [Example 310]	52.9%	786 nM		
CC(C)(C(=O)Nc1nncs1)[C@H]1c2ccccc2Oc2nc(-c3ccc(C(=O)N4CCC[C@@H]4C(N)=O)cc3)ccc21 [Example 312]	73.1%	267 nM		
CC(C)(C(=O)Nc1nncs1)[C@H]1c2ccccc2Oc2nc(-c3ccc(C(=O)N4CCC(F)(F)C4)cc3)ccc21 [Example 314]	69.8%	18 nM		
CC(C)(C(=O)Nc1nncs1)[C@H]1c2ccccc2Oc2nc(-c3ccc(C(=O)N4CC(O)C4)cc3)ccc21 [Example 315]	40.9%	750 nM		
CC(C)(C(=O)Nc1nncs1)[C@H]1c2ccccc2Oc2nc(-c3ccc(C(=O)N4CCCC4C#N)cc3)ccc21 (some centres unmarked) [Example 316]	35.9%	60.9 nM		
CC(C)C1CCCN1C(=O)c1ccc(-c2ccc3c(n2)Oc2ccccc2[C@@H]3C(C)(C)C(=O)Nc2nncs2)cc1 (some centres unmarked) [Example 318]	27.6%	63.1 nM		
CC(=O)N1CCN(C(=O)c2ccc(-c3ccc4c(n3)Oc3ccccc3[C@@H]4C(C)(C)C(=O)Nc3nncs3)cc2F)CC1 [Example 324]	54.9%	431 nM		
COC[C@H]1CCCN1C(=O)c1ccc(-c2ccc3c(n2)Oc2ccccc2[C@@H]3C(C)(C)C(=O)Nc2nncs2)cc1F [Example 325]	56.1%	90.2 nM		
CC(C)(C(=O)Nc1nncs1)[C@H]1c2ccccc2Oc2nc(-c3ccc(C(=O)N4CCOCC4)c(F)c3)ccc21 [Example 327]			8.93 nM	59.45%
CC(C)(C(=O)Nc1nncs1)[C@H]1c2ccccc2Oc2nc(-c3ccc(C(=O)N4CCOCC4)c(Cl)c3)ccc21 [Example 328]			18.6 nM	66.06%

SMILES	Emax [1]	EC50 [2]	EC50 (Cellular Transrepression Assay)	AP-1 Max % inh (Cellular Transrepression Assay) (Cellular Transrepression Assay)
CC(C)N(C)C(=O)c1ccc(-c2ccc3c(n2)Oc2ccccc2[C@@H]3C(C)(C)C(=O)Nc2nncs2)cc1F [Example 329]			583 nM	40.81%
COC[C@H]1CCCN1C(=O)c1ccc(-c2ccc3c(n2)Oc2ccccc2[C@@H]3C(C)(C)C(=O)Nc2nncs2)cc1Cl [Example 330]	60.6%	21.9 nM		
CC(C)(C(=O)Nc1nncs1)[C@H]1c2ccccc2Oc2nc(-c3ccc(C(=O)N4CCC[C@@H]4CO)cc3)ccc21 [Example 331]	36.3%	33.7 nM		
CC(C)(C(=O)Nc1nncs1)[C@H]1c2ccccc2Oc2nc(-c3ccc(C(=O)N4CCCC4)c(F)c3)ccc21 [Example 333]			24.7 nM	52.71%
CC(C)(C(=O)Nc1nncs1)[C@H]1c2ccccc2Oc2nc(-c3ccc(C(=O)N4CCC(F)(F)CC4)c(F)c3)ccc21 [Example 334]	36.2%	3.36 nM		
CC(C)(C(=O)Nc1nncs1)[C@H]1c2ccccc2Oc2nc(-c3ccc(C(=O)N4CCC(F)(F)C4)c(F)c3)ccc21 [Example 335]	56%	37.9 nM		
CCN(C)C(=O)c1ccc(-c2ccc3c(n2)Oc2ccccc2[C@@H]3C(C)(C)C(=O)Nc2nncs2)cc1F [Example 336]			20.4 nM	55.80%
CC(C)(C(=O)Nc1nncs1)[C@H]1c2ccccc2Oc2nc(-c3ccc(C(=O)N4CC(F)(F)C(F)(F)C4)c(F)c3)ccc21 [Example 337]	51.5%	103 nM		
CC(C)(C(=O)Nc1nncs1)[C@H]1c2ccccc2Oc2nc(-c3ccc(C(=O)N4CCC(F)(F)CC4)c(Cl)c3)ccc21 [Example 339]	38.4%	185 nM		
CC(C)(C(=O)Nc1nncs1)[C@H]1c2ccccc2Oc2nc(-c3ccc(C(=O)N4CCC(F)(F)C4)c(Cl)c3)ccc21 [Example 340]	67.6%	54.8 nM		
CC(C)(C(=O)Nc1nncs1)[C@H]1c2ccccc2Oc2nc(-c3ccc(C(=O)N4CCCC4)c(Cl)c3)ccc21 [Example 341]			14.8 nM	50.27%
CCCN(C)C(=O)c1ccc(-c2ccc3c(n2)Oc2ccccc2[C@@H]3C(C)(C)C(=O)Nc2nncs2)cc1F [Example 343]			18.4 nM	29.68%
CC(C)(C(=O)Nc1nncs1)[C@H]1c2ccccc2Oc2nc(-c3ccc(C(=O)N4CCC[C@@H]4CO)c(F)c3)ccc21 [Example 344]	44.5%	39.6 nM		
CCN(C)C(=O)c1ccc(-c2ccc3c(n2)Oc2ccccc2[C@@H]3C(C)(C)C(=O)Nc2nncs2)cc1Cl [Example 345]			124 nM	54.25%
CNC(=O)c1ccc(-c2ccc3c(n2)Oc2ccccc2[C@@H]3C(C)(C)C(=O)Nc2nncs2)cc1 [Example 348]	34.4%	300 nM		
CC(C)(C(=O)Nc1nncs1)[C@H]1c2ccccc2Oc2nc(-c3ccc(C(=O)NC4CC4)cc3)ccc21 [Example 350]	45.1%	520 nM		
Cc1csc(NC(=O)C(C)(C)C2c3ccccc3Oc3nc(-c4ccc(C(=O)N(C)C)cc4)ccc32)n1 (centres unmarked) [Example 363]			247 nM	47.74%
Cc1cnc(NC(=O)C(C)(C)C2c3ccccc3Oc3nc(-c4ccc(C(=O)N(C)C)cc4)ccc32)s1 (centres unmarked) [Example 364]			244 nM	58.90%
CC(C)(C(=O)Nc1nncs1)[C@H]1c2ccccc2Oc2cc(OC(=O)NCc3ccccc3)ccc21 [Example 369, (s)-9-(1-(1,3,4-thiadiazole-2ylamino)-2-methyl-1-oxopropan-2-yl)-9H-xanthen-3-yl benzylcarbamate]	55.5%	33 nM		
CCCCNC(=O)Oc1ccc2c(c1)Oc1ccccc1[C@@H]2C(C)(C)C(=O)Nc1nncs1 [Example 370]	57.6%	34.2 nM		
CCNC(=O)Oc1ccc2c(c1)Oc1ccccc1[C@@H]2C(C)(C)C(=O)Nc1nncs1 [Example 371]	48.7%	22.3 nM		
CC(C)(C(=O)Nc1nncs1)[C@H]1c2ccccc2Oc2cc(OC(=O)NCc3ccco3)ccc21 [Example 372]	52.4%	28.3 nM		
CC(C)(C(=O)Nc1nncs1)C1c2ccccc2Oc2cc(OC(=O)NC3CCCCC3)ccc21 (centres unmarked) [Example 373]	45.6%		32.8 nM	
CCCCCCCCNC(=O)Oc1ccc2c(c1)Oc1ccccc1C2C(C)(C)C(=O)Nc1nncs1 (centres unmarked) [Example 374]	50.9%	30.9 nM		
CC(C)(C(=O)Nc1nncs1)C1c2ccccc2Oc2cc(OC(=O)NCCc3ccccc3)ccc21 (centres unmarked) [Example 375]			82.8 nM	51.24%
CC(C)(C(=O)Nc1nncs1)C1c2ccccc2Oc2cc(OC(=O)NCCc3cccs3)ccc21 (centres unmarked) [Example 376]			34.4 nM	45.09%
